Biological target: T1, hTAS1R1 R277A/rTAS1R3 (Homo sapiens, UniProt Q7RTX1, R277A)
T1 construct: UniProtKB number Q7RTX1–1); expressed in transfected cells; host or cells: HEK293T/17 (ATCC CRL-11268)
T1 sequence (Q7RTX1 21-841 R277A): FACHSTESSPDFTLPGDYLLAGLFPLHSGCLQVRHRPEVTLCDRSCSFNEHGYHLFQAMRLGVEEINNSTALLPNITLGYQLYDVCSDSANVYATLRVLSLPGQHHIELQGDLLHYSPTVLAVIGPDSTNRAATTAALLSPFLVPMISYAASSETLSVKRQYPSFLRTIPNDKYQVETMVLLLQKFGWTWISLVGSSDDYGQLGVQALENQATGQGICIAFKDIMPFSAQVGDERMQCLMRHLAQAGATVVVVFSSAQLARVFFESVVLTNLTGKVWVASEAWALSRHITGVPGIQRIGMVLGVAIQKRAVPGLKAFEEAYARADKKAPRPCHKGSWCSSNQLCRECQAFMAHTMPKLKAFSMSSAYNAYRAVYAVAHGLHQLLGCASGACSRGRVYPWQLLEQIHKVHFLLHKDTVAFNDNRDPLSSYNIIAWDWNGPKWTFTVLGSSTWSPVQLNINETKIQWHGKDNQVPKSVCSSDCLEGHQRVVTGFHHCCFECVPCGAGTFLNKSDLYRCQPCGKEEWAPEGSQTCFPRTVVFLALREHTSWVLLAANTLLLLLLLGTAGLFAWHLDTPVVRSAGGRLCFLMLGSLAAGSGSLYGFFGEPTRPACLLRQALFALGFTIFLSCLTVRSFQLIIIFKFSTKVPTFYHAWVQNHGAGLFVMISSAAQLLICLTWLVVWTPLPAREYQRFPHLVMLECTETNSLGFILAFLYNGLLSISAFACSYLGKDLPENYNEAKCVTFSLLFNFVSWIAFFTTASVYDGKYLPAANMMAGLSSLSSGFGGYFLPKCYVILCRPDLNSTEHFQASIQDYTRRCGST
T1 sequence (Q923K1 21-858 partner): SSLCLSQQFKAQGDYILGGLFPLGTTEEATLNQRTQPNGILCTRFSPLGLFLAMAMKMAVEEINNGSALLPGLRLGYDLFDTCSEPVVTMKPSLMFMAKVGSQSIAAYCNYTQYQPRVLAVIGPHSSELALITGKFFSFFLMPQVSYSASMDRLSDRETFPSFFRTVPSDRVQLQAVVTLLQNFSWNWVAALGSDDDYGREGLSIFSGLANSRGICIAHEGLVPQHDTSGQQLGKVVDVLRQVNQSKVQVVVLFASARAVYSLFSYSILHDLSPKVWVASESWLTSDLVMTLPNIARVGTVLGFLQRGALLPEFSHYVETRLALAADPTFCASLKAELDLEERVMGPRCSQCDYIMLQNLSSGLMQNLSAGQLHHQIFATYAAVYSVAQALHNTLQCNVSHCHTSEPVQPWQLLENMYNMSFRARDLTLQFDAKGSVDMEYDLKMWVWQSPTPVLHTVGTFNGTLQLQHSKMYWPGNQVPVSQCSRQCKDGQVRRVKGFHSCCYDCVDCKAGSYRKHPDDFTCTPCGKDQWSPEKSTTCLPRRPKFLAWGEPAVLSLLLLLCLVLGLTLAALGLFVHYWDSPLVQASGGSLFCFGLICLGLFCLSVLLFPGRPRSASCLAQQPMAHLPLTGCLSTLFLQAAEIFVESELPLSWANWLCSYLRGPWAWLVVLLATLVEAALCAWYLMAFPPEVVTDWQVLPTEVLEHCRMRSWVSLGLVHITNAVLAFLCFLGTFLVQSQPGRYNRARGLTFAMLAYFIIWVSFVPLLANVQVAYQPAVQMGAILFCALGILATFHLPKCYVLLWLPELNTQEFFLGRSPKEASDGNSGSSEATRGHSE
Assay: Calcium assay, hTAS1R1 mutant co-expressed with rTAS1R3
Type: cell-based, rat

Row | SMILES | EC50 [mM] | effect of the added compound (1 mM) on the response to L-Glu (R277A) | response to the agonist alone, vs WT (R277A) | Max ∆F/F0 (R277A, GSH) | R1 = mutant EC50/WT EC50 (R277A, GSH)
1 | N[C@@H](CCC(=O)N[C@@H](CS)C(=O)NCC(=O)O)C(=O)O [GSH, γ-L-glutamyl-L-cysteinyl-glycine] | 1.84 ± 0.174 | did not affect | significantly increased the initial amplitude | 0.85 ± 0.02 | 0.7
2 | N[C@@H](CCC(=O)O)C(=O)O [L-Glu, L-glutamic acid, reference compound] |  |  | increased the amplitude |  | 

Source: article PMC12615753, “Glutathione as a taste modulator: molecular mechanisms of interaction with umami and sweet taste receptors” (Food Chemistry: Molecular Sciences, 2025)
